ChEMBL document CHEMBL5729210, “Benzodiazepine derivatives as RSV inhibitors” (2022)
Where “and” joins values, the source holds several entries; their conditions need not be identical. Equal entries are not always repeated.

Assay: RSV-A Assay: The description is Japanese.

Row | SMILES | EC50
1 | O=C1Nc2ccccc2C(c2ccccc2)=N[C@@H]1Nc1nnc(-c2ncsc2C2=CCOCC2)o1 | < 400 nM
2 | COCCCc1sc(C(F)(F)F)nc1-c1nnc(N[C@H]2N=C(c3ccccc3)c3ccccc3NC2=O)o1 | > 800 nM
3 | COC(=O)c1ncc(C#N)cc1N1CCOCC1 | < 400 nM
4 | O=C1Nc2ccccc2C(c2ccccc2)=NC1Nc1nnc(-c2ccc(N3CCOCC3)nc2)o1 (stereo not given) | < 400 nM
5 | N#Cc1cnc(-c2nnc(N[C@H]3N=C(c4ccccc4)c4ccccc4NC3=O)o2)c(N2CCOCC2)c1 | < 400 nM
6 | O=C1Nc2ccccc2C(c2ccccc2)=NC1Nc1nnc(-c2ccncc2N2CCOCC2)o1 (stereo not given) | in the range around 600 nM
7 | O=C1Nc2ccccc2C(c2ccccc2)=N[C@@H]1Nc1nnc(-c2ncc(C(F)(F)F)cc2N2CCOC(C(F)(F)F)C2)o1 (stereo not given in full) | < 400 nM
8 | COC(C)(C)CNc1cc(C(F)(F)F)cnc1-c1nnc(N[C@H]2N=C(c3ccccc3)c3ccccc3NC2=O)o1 | > 800 nM
9 | CN(CC(C)(C)O)c1cc(C(F)(F)F)cnc1-c1nnc(N[C@H]2N=C(c3ccccc3)c3ccccc3NC2=O)o1 | > 800 nM
10 | CN(C)c1cc(C(F)(F)F)cnc1-c1nnc(N[C@H]2N=C(c3ccccc3)c3ccccc3NC2=O)o1 | > 800 nM
11 | O=C1Nc2ccccc2C(c2ccccc2)=N[C@@H]1Nc1nnc(-c2cn(-c3ccc(C(F)(F)F)cn3)nc2N2CCOCC2)o1 | in the range around 600 nM
12 | O=C1Nc2ccccc2C(c2ccccc2)=NC1Nc1nnc(-c2ccc(=O)[nH]c2)o1 (stereo not given) | > 800 nM
13 | COc1ccccc1-c1nc(-c2nnc(N[C@H]3N=C(c4ccccc4)c4ccccc4NC3=O)o2)c(N2CCOCC2)s1 | < 400 nM
14 | O=C1Nc2ccccc2C(c2ccccc2)=NC1Nc1nnc(-c2ccc(-n3ccnc3)nc2)o1 (stereo not given) | > 800 nM
15 | Cc1nc(-c2nnc(NC3N=C(c4ccccc4)c4ccccc4NC3=O)o2)ccc1F (stereo not given) | > 800 nM
16 | O=C1Nc2ccccc2C(c2ccccc2)=N[C@@H]1Nc1nnc(-c2ccc(N3C4CCC3COC4)cc2Cl)o1 | > 800 nM
17 | O=C1Nc2ccccc2C(c2ccccc2)=NC1Nc1nc2cc(F)ccc2o1 (stereo not given) | > 800 nM
18 | COCCc1cccn2ncc(-c3nnc(N[C@H]4N=C(c5ccccc5)c5ccccc5NC4=O)o3)c12 | > 800 nM
19 | O=C1Nc2ccccc2C(c2ccccc2)=NC1Nc1cc(-c2ccccc2)ncn1 (stereo not given) | > 800 nM
20 | O=C1Nc2ccccc2C(c2ccccc2)=N[C@@H]1Nc1nnc(-c2cn(C3CCC3)nc2N2CCOCC2)o1 | < 400 nM
21 | Cc1ccc(C(=O)O)c(N2CCOCC2)n1 | < 400 nM
22 | CCOC(=O)c1nnc(NC2N=C(c3ccccc3)c3ccccc3NC2=O)o1 (stereo not given) | > 800 nM
23 | O=C1Nc2ccccc2C(c2ccccc2)=N[C@@H]1Nc1nnc(-c2ccc(F)cc2N2CC3CCC(C2)O3)o1 | in the range around 600 nM

Row | SMILES | EC50
24 | O=C1Nc2ccccc2C(c2ccccc2)=N[C@@H]1Nc1nnc(-c2ncc(C(F)(F)F)cc2N[C@@H]2CCOC2)o1 | < 400 nM
25 | O=C1Nc2ccccc2C(c2ccccc2)=N[C@H]1Nc1nnc(-c2ccco2)o1 | > 800 nM
26 | O=C1Nc2ccccc2C(c2ccccc2)=N[C@@H]1Nc1nnc(-c2cn(CC3CC3)nc2N2CCOCC2)o1 | < 400 nM and in the range around 600 nM
27 | O=C1Nc2ccccc2C(c2ccccc2)=NC1Nc1nnco1 (stereo not given) | > 800 nM
28 | O=C1Nc2ccccc2C(c2ccccc2)=N[C@@H]1Nc1nnc(-c2ncc(C(F)(F)F)cc2N2CCOCC2)o1 [ZELICAPAVIR] | < 400 nM (2×) and > 800 nM
29 | N#Cc1ccc(-c2nnc(NC3N=C(c4ccccc4)c4ccccc4NC3=O)o2)cc1 (stereo not given) | in the range around 600 nM
30 | O=C1Nc2ccccc2C(c2ccccc2)=NC1Nc1nnc(-c2ccccc2-c2ccncc2)o1 (stereo not given) | > 800 nM
31 | N#Cc1ccc(-c2nnc(NC3N=C(c4ccccc4)c4ccccc4NC3=O)o2)c(N2CCOCC2)c1 (stereo not given) | < 400 nM
32 | O=C1Nc2ccccc2C(c2ccccc2)=N[C@@H]1Nc1nnc(-c2ccco2)o1 | in the range around 600 nM
33 | O=C1Nc2ccccc2C(c2ccccc2)=NC1Nc1nnc(-c2cccc(N3CCOCC3)c2)o1 (stereo not given) | > 800 nM
34 | O=C1Nc2ccccc2C(c2ccccc2)=NC1Nc1nnc(-c2cn(-c3ccc(F)cn3)nc2N2CCOCC2)o1 (stereo not given) | < 400 nM
35 | CS(=O)(=O)c1ccc(-c2nnc(NC3N=C(c4ccccc4)c4ccccc4NC3=O)o2)cc1 (stereo not given) | > 800 nM
36 | Cc1noc(C)c1-c1cc(C#N)ccc1-c1nnc(N[C@H]2N=C(c3ccccc3)c3ccccc3NC2=O)o1 | > 800 nM
37 | Cn1c(N2CCOCC2)c(-c2nnc(N[C@H]3N=C(c4ccccc4)c4ccccc4NC3=O)o2)ccc1=O | < 400 nM
38 | COc1cc(-c2nnc(NC3N=C(c4ccccc4)c4ccccc4NC3=O)o2)ccn1 (stereo not given) | > 800 nM
39 | O=C1Nc2ccccc2C(c2ccccc2)=N[C@H]1Nc1nnc(-c2nc(C(F)(F)F)sc2N2CCO[C@@H]3C[C@@H]32)o1 | > 800 nM
40 | O=C(O)c1ccc(-n2cncn2)cc1N1CCOCC1 | in the range around 600 nM
41 | O=c1c(Br)cccn1Cc1ccccc1 | > 800 nM
42 | COC[C@H]1C[C@@H]1c1cc(C(F)(F)F)cnc1-c1nnc(N[C@H]2N=C(c3ccccc3)c3ccccc3NC2=O)o1 | > 800 nM
43 | NNC(=O)c1cc(F)cnc1N1CCOCC1 | in the range around 600 nM
44 | O=C1Nc2ccccc2C(c2ccccc2)=NC1Nc1cnc(-c2ccc(F)cc2)cn1 (stereo not given) | > 800 nM
45 | O=C1Nc2ccccc2C(c2ccccc2)=N[C@@H]1Nc1nnc(-c2ncsc2N2CCOCC2)o1 | < 400 nM
46 | COCC1(Nc2cc(C(F)(F)F)cnc2-c2nnc(N[C@H]3N=C(c4ccccc4)c4ccccc4NC3=O)o2)CC1 | > 800 nM

Row | SMILES | EC50
47 | O=C1Nc2ccccc2C(c2ccccc2)=N[C@@H]1Nc1nnc(-c2ncc(C3CC3)cc2N2CC3CCC(C2)O3)o1 | < 400 nM
48 | CCOC(=O)c1cn(CC)nc1N1CCOCC1 | < 400 nM
49 | CS(=O)(=O)Cc1nnc(NC2N=C(c3ccccc3)c3ccccc3NC2=O)o1 (stereo not given) | > 800 nM
50 | O=C1Nc2ccccc2C(c2ccccc2)=N[C@@H]1Nc1nnc(-c2ncc(C(F)(F)F)cc2N[C@H]2CC[C@H]2O)o1 | > 800 nM
51 | O=C1Nc2ccccc2C(c2ccccc2)=N[C@@H]1Nc1nnc(-c2cn(-c3ccccn3)nc2N2CCOCC2)o1 | < 400 nM
52 | Cc1nc(-c2nnc(N[C@H]3N=C(c4ccccc4)c4ccccc4NC3=O)o2)cs1 | > 800 nM
53 | COCCNc1cc(C(F)(F)F)cnc1-c1nnc(N[C@H]2N=C(c3ccccc3)c3ccccc3NC2=O)o1 | < 400 nM
54 | O=C1Nc2c(F)cccc2C(c2ccccc2)=NC1Nc1nnc(-c2ccc(N3CCOCC3)cc2)o1 (stereo not given) | in the range around 600 nM
55 | O=C1Nc2ccccc2C(c2ccccc2)=N[C@@H]1Nc1nnc(-c2nc(-c3ccncc3)sc2N2CCOCC2)o1 | < 400 nM
56 | O=C1Nc2ccccc2C(c2ccccc2)=NC1Nc1nnc(CC(F)(F)F)o1 (stereo not given) | > 800 nM
57 | COc1ccnc(-c2nnc(NC3N=C(c4ccccc4)c4ccccc4NC3=O)o2)c1 (stereo not given) | > 800 nM
58 | O=C1Nc2ccccc2C(c2ccccc2)=NC1Nc1nnc(-c2ccc(-n3cnnc3)cc2)o1 (stereo not given) | > 800 nM
59 | O=C1Nc2c(Cl)cccc2C(c2ccccc2)=NC1Nc1nnc(-c2ccccc2N2CCOCC2)o1 (stereo not given) | > 800 nM
60 | O=C1Nc2ccccc2C(c2ccccc2)=NC1Nc1nc2c(F)cccc2o1 (stereo not given) | > 800 nM
61 | N#Cc1ccn2ncc(-c3nnc(N[C@H]4N=C(c5ccccc5)c5ccccc5NC4=O)o3)c2c1 | > 800 nM
62 | O=C1Nc2ccccc2C(c2ccccc2)=NC1Nc1nnc(-c2ccc(N3CCOCC3)cc2)o1 (stereo not given) | < 400 nM
63 | Cn1cc(-c2nnc(NC3N=C(c4ccccc4)c4ccccc4NC3=O)o2)cn1 (stereo not given) | in the range around 600 nM
64 | O=C1Nc2ccccc2C(c2ccccc2)=NC1Nc1nnc(CCc2ccccc2)o1 (stereo not given) | > 800 nM
65 | O=C1Nc2ccccc2C(c2ccccc2)=NC1Nc1nnc(-c2cccc(C(F)(F)F)c2)o1 (stereo not given) | > 800 nM
66 | O=C1Nc2ccccc2C(c2ccccc2)=NC1Nc1nnc(-c2cccnc2N2CC(F)(F)C2)o1 (stereo not given) | > 800 nM
67 | O=C1Nc2ccccc2C(c2ccccc2)=NC1Nc1nnc(-c2ncc(N3CCOCC3)cc2F)o1 (stereo not given) | < 400 nM
68 | N#Cc1cc(N2CCOCC2)c(-c2nnc(N[C@H]3N=C(c4ccccc4)c4ccccc4NC3=O)o2)s1 | < 400 nM
69 | O=C(O)c1ccncc1N1CCCCC1 | > 800 nM

Row | SMILES | EC50
70 | C[C@@H]1CN(c2cc(F)ccc2-c2nnc(N[C@H]3N=C(c4ccccc4)c4ccccc4NC3=O)o2)C[C@H](C)O1 | > 800 nM
71 | Cn1ccnc1-c1nnc(NC2N=C(c3ccccc3)c3ccccc3NC2=O)o1 (stereo not given) | > 800 nM
72 | C[C@@H]1COCCN1c1cc(C#N)cnc1-c1nnc(N[C@H]2N=C(c3ccccc3)c3ccccc3NC2=O)o1 | < 400 nM
73 | O=C1Nc2c(F)cccc2C(c2ccccc2)=N[C@@H]1Nc1nnc(-c2ccccc2N2CCOCC2)o1 | < 400 nM
74 | CCOC(=O)c1nc(-c2ccc(C(F)(F)F)nc2)sc1N1CCOCC1 | < 400 nM
75 | COc1ccc(-c2nnc(NC3N=C(c4ccccc4)c4ccccc4NC3=O)o2)nc1 (stereo not given) | in the range around 600 nM
76 | Cc1nc2ccc(-c3nnc(NC4N=C(c5ccccc5)c5ccccc5NC4=O)o3)cc2s1 (stereo not given) | in the range around 600 nM
77 | CO[C@@H]1CCN(c2ccccc2-c2nnc(NC3N=C(c4ccccc4)c4ccccc4NC3=O)o2)C1 (stereo not given in full) | > 800 nM
78 | COC[C@@H]1C[C@H]1c1cc(C(F)(F)F)cnc1-c1nnc(N[C@@H]2N=C(c3ccccc3)c3ccccc3NC2=O)o1 | > 800 nM
79 | CCc1nc(N2CCOCC2)c(-c2nnc(N[C@H]3N=C(c4ccccc4)c4ccccc4NC3=O)o2)cc1C#N | < 400 nM
80 | O=C1Nc2ccccc2C(c2ccccc2)=NC1Nc1nnc(C2CC2)[nH]1 (stereo not given) | > 800 nM
81 | CCOC(=O)c1ccnc2ccc(OC)cc12 | > 800 nM
82 | O=C1Nc2ccccc2C(c2ccccc2)=NC1Nc1nnc(-c2ccc3nc[nH]c3c2)o1 (stereo not given) | > 800 nM and in the range around 600 nM
83 | O=C1Nc2ccccc2C(c2ccccc2)=N[C@@H]1Nc1nnc(-c2cn(CC(F)(F)F)nc2N2CCOCC2)o1 | > 800 nM
84 | CC(C)(O)c1nc(-c2nnc(N[C@H]3N=C(c4ccccc4)c4ccccc4NC3=O)o2)c(N2CCOCC2)s1 | < 400 nM
85 | CCCc1nnc(NC2N=C(c3ccccc3)c3ccccc3NC2=O)o1 (stereo not given) | > 800 nM
86 | COC1CCN(c2ncccc2-c2nnc(NC3N=C(c4ccccc4)c4ccccc4NC3=O)o2)CC1 (stereo not given) | > 800 nM
87 | O=C1Nc2ccccc2C(c2ccccc2)=NC1Nc1nnc(-c2ccc(-n3cccn3)cc2)o1 (stereo not given) | in the range around 600 nM
88 | COC(=O)c1occc1N1CCOCC1 | < 400 nM
89 | O=C1Nc2ccccc2C(c2ccccc2)=N[C@@H]1Nc1nnc(-c2ncc(C(F)(F)F)cc2NC[C@@H]2CCCO2)o1 | in the range around 600 nM
90 | CCOC(=O)c1nc(C)sc1NCCOC | < 400 nM
